SMILES strings stand for the structures.

The values below come from ChEMBL document CHEMBL3507680, “University of Dundee, Gates Library screen for HepG2 cell viability”.

A short description of this data set: Human HepG2 cell viability assay in 384 well format. It is filed as toxicity, cell-based. Further details: dose 125 nL, time 70.5 hour; concentration not given beside the values. The note with it: HepG2 cells, read-out: Inhibition.

Take `CN1C[C@H](O)[C@]2(CCN(C(=O)COc3ccccc3)C2)S1(=O)=O`: the cytotoxicity at 70.5 h was -5.4%.
The figure for `CN1C[C@@H](O)[C@]2(CCN(C(=O)c3ccccc3)C2)S1(=O)=O` is -7.54%; for `CN1C[C@@H](O)[C@]2(CCN(C(=O)OCc3ccccc3)C2)S1(=O)=O` it is -10.5%; for `CNC(=O)CC1c2cccnc2C(=O)N1Cc1ccccc1` (centres undefined) it is -4.81%.
In the case of `NC(=O)CC1c2cccnc2C(=O)N1Cc1ccccc1` (centres undefined), the cytotoxicity at 70.5 h was -6.46%.
The figure for `CCCC(O)CN1CCC(=O)N(CCOC)Cc2ccccc21` (centres undefined) is -10.1%; for `CN1Cc2ccccc2N(CC(O)C(F)(F)F)CCC1=O` (centres undefined) it is -6.68%.
With `CN1Cc2cc(F)ccc2N(CC(O)C(F)(F)F)CCC1=O` (centres undefined) the figure was 11.8%.
The figure for `O=C1CCNc2ccc(F)cc2CN1Cc1ccccc1` is 2.31%.
`O=C1CCNc2ccc(F)cc2CN1Cc1ccco1`: the cytotoxicity at 70.5 h worked out at 2.21%.
Consider `O=C1CCNc2ccccc2CN1Cc1ccco1`, for which the cytotoxicity at 70.5 h is -6.23%.
With `COc1ccc2c(c1)CN(C)C(=O)CCN2CC(O)C(C)(C)C` (centres undefined), the cytotoxicity at 70.5 h was -6.98%.
With `O=C1CN(C(=O)OCc2ccccc2)CC(O)CN1Cc1ccco1` (centres undefined) the figure was 12.1%.
As to `COc1ccccc1C(=O)N1CC(=O)N(Cc2ccco2)CC(O)C1` (centres undefined), the cytotoxicity at 70.5 h was -12.4%.
Consider `CC(C)COC(=O)N1CC(=O)N(Cc2ccco2)CC(O)C1` (centres undefined), for which the cytotoxicity at 70.5 h was -3.84%.
Consider `CCCC1CN(CCOc2ccccc2)C(=O)c2cccnc2O1` (centres undefined), for which the cytotoxicity at 70.5 h was 4.28%.
As to `CC(C)CN1C[C@H](COCc2ccccc2)Oc2ncccc2C1=O`, the cytotoxicity at 70.5 h was 23.1%.
As for `CNC(=O)[C@@H]1[C@@H](OC(=O)Nc2ccccc2)C(=O)N(C)C12CCNCC2`, the cytotoxicity at 70.5 h is -2.76%.
With `CCS(=O)(=O)N1CCC(OC)c2ccccc2N(CC(=O)NC)C(=O)C1` (centres undefined) the figure was -1.92%; with `OCC1N(Cc2ccco2)[C@H]2CC[C@]1(O)CC2` (some centres undefined), -9.15%.
For the molecule `COCC1N(C(=O)c2ccc3c(c2)OCCCO3)[C@H]2CC[C@]1(O)CC2` (some centres undefined), the cytotoxicity at 70.5 h was -6.94%.
Consider `CCOC(=O)C1CC2(CCOCC2)N2CCC(=O)N12` (centres undefined), for which the cytotoxicity at 70.5 h was -6.97%.
Turning to `O=S1(=O)c2ccccc2C(O)CN1CCO` (centres undefined), the cytotoxicity at 70.5 h is -5.7%.
Regarding `CCOC(=O)[C@@H]1CN2CCNC[C@@H]2[C@H]1c1ccccc1`, the cytotoxicity at 70.5 h was -7.39%.
As to `CCOC(=O)[C@@H]1[C@@H](c2ccccc2)CN2CCN(C(=O)N(C)C)C[C@H]12`, the cytotoxicity at 70.5 h was -5.43%.
Consider `CCOC(=O)[C@@H]1[C@H]2CN(C(=O)OC)CCN2C[C@H]1c1ccccc1`, for which the cytotoxicity at 70.5 h is -5.21%.
For the molecule `CCCC(O)CN1CCC(=O)N(Cc2ccccc2)Cc2ccccc21` (centres undefined), the cytotoxicity at 70.5 h turned out to be 2.6%.
Take `COCC(O)CN1CCC(=O)N(Cc2ccco2)Cc2ccccc21` (centres undefined): the cytotoxicity at 70.5 h was 26.6%.
Turning to `COc1ccc(CN2CC(O)CN(C(=O)CC(C)C)CC2=O)cc1` (centres undefined), the cytotoxicity at 70.5 h was 4.85%.
As to `CC(O)CN1CC(C)(C)CN(C(=O)CCc2ccccc2)CC1=O` (centres undefined), the cytotoxicity at 70.5 h is -2.42%.
Turning to `CN1CC(C)(C)CN(C(=O)CCc2ccccc2)CC1=O`, the cytotoxicity at 70.5 h was -1.8%.
In the case of `Cc1ccc(CN2CC(O)CN(C(=O)C3CC3)CC2=O)cc1` (centres undefined), the cytotoxicity at 70.5 h was -5.26%.
On to `COc1cccc(OC)c1C(=O)N1CC(=O)N(C2CCC2)CC(O)C1` (centres undefined), for which the cytotoxicity at 70.5 h is -0.00128%.
For the molecule `CCOc1ccccc1C(=O)N1CC(=O)N(C2CCC2)CC(O)C1` (centres undefined), the cytotoxicity at 70.5 h is -4.81%.
With `COc1ccc(C(=O)N2CC(=O)N(C3CCC3)CC(O)C2)cc1OC` (centres undefined) the figure was -5.23%; with `O=C1CN(C(=O)c2cccc(C(F)(F)F)c2)CC(O)CN1CC1CC1` (centres undefined), 20.9%; with `CCN1CC(O)CN(C(=O)c2cccc(C(F)(F)F)c2)CC1=O` (centres undefined), -4.06%.
Turning to `CCN1CC(O)CN(C(=O)c2ccc(SC)cc2)CC1=O` (centres undefined), the cytotoxicity at 70.5 h is -4.25%.
Take `N#CCCN1CC(O)CN(C(=O)c2cccc(C(F)(F)F)c2)CC1=O` (centres undefined): the cytotoxicity at 70.5 h was -1.43%.
On to `COC1CCN(C(=O)NCC(N)=O)CC(=O)N(C)c2ccccc21` (centres undefined), for which the cytotoxicity at 70.5 h is -5.28%.
With `O=C(C1CC1)N1CCN2C[C@@H](CO)[C@H](c3ccccc3)[C@H]2C1`, the cytotoxicity at 70.5 h was found to be 8.58%.
For `NC(=O)[C@@H]1CN2CCN(C(=O)C3CC3)C[C@@H]2[C@H]1c1ccccc1`, the cytotoxicity at 70.5 h was -2.24%.
With `CNC(=O)[C@@H]1[C@@H](c2ccccc2)CN2CCN(Cc3ccccn3)C[C@H]12`, the cytotoxicity at 70.5 h is -7.27%.
As for `O=C(C1CC1)N1CCN2C[C@H](c3ccccc3)[C@@H](CO)[C@H]2C1`, the cytotoxicity at 70.5 h was -5.2%.
In the case of `CC(C)COC(=O)N1CC(=O)N(CCc2ccccc2)CC(O)C1` (centres undefined), the cytotoxicity at 70.5 h came out at 25.4%.
In the case of `COc1ccc(CN2CC(O)CN(C(=O)OCC(C)C)CC2=O)cc1` (centres undefined), the cytotoxicity at 70.5 h amounted to 14.8%.
Consider `COc1cccc(CN2CC(O)CN(C(=O)C(C)(C)C)CC2=O)c1OC` (centres undefined), for which the cytotoxicity at 70.5 h was found to be 50.4%.
The figure for `c1ccc(OCCCN2CCOC(CNc3cccnn3)C2)cc1` (centres undefined) is -6.97%.
Consider `COc1ccc(C)cc1CC(=O)NS(=O)(=O)c1ccc(C(N)=O)cc1`, for which the cytotoxicity at 70.5 h was -6.98%.
In the case of `CC(=O)N1CCCC1C(=O)NCCOc1cccc(F)c1` (centres undefined), the cytotoxicity at 70.5 h is -12.8%.
In the case of `CC(=O)N1CCCC1C(=O)NCCOc1ccc(C(C)C)cc1` (centres undefined), the cytotoxicity at 70.5 h is -1.19%.
As to `CN(Cc1ccco1)C(=O)C1CSCN1C(=O)C1CCC1` (centres undefined), the cytotoxicity at 70.5 h is -8.79%.
Take `Cc1nc(C)c(CN2CCC(N(C)Cc3nnc(C4CC4)o3)C2)s1` (centres undefined): the cytotoxicity at 70.5 h was -12.3%.
As to `CCN(CC)Cc1ccc(C(=O)N2CCCC2c2cnn(C)c2)o1` (centres undefined), the cytotoxicity at 70.5 h turned out to be 21.2%.
The figure for `Cc1ccc(CN(C)C(=O)CN2CCCC(Cn3cncn3)C2)o1` (centres undefined) is -5.76%.
With `CC(=O)N1CCCC(C(=O)NCCOc2cc(C)cc(C)c2)C1` (centres undefined) the figure was 18%; with `CC(=O)NCc1ccc(C(=O)N2CCCC2c2c(C)nn(C)c2C)o1` (centres undefined), -9.03%.
The figure for `Cc1nn(C)c(C)c1C1CCCN1C(=O)CCc1ccco1` (centres undefined) is -1.9%.
Turning to `CN(Cc1cccs1)C(=O)CN1CCCC(Cn2cncn2)C1` (centres undefined), the cytotoxicity at 70.5 h was -5.28%.
As to `Cc1ccc(CNC(=O)Nc2nncs2)cn1`, the cytotoxicity at 70.5 h is -6.07%.
Consider `Cc1ccc(CNC(=O)Nc2nccs2)cn1`, for which the cytotoxicity at 70.5 h was -4.14%.
As to `Cc1ccc(-c2nc(CN3CCN(CCO)CC3)co2)cc1`, the cytotoxicity at 70.5 h was -9.54%.
In the case of `CCOCCCn1c(NC(=O)c2cnc(C)s2)nc2ccccc21`, the cytotoxicity at 70.5 h amounted to 4.48%.
The figure for `CN(Cc1ccncc1)C(=O)[C@H]1CSCN1C(=O)OC(C)(C)C` is -2.79%; for `CN(Cc1ccsc1)C(=O)CN1CCCC(Cn2cncn2)C1` (centres undefined) it is -5.89%; for `CC(=O)NCc1ccc(C(=O)N2CCCC2c2cnn(C)c2)s1` (centres undefined) it is -0.6%.
Consider `Cc1csc(C2CCCCN2C(=O)c2cc(C)n(C)n2)n1` (centres undefined), for which the cytotoxicity at 70.5 h stood at 25.5%.
For `Cc1csc(C2CCCCN2C(=O)c2cc(C(C)C)[nH]n2)n1` (centres undefined), the cytotoxicity at 70.5 h was 1.99%.
For the molecule `Cc1nc(CN(C)C2CCN(Cc3ccc(Cl)s3)C2)no1` (centres undefined), the cytotoxicity at 70.5 h is -4.8%.
The figure for `N#Cc1ccsc1NC(=O)CCN1CCn2c(nnc2C2CC2)C1` is -7.52%; for `N#Cc1ccsc1NC(=O)CN1CCn2c(nnc2C2CC2)C1` it is -6.74%; for `Cc1csc(C2CCCCN2C(=O)c2c[nH]c(C)n2)n1` (centres undefined) it is 0.914%.
For the molecule `CCc1nnc(CN(C)C2CCCN(Cc3noc(C4CC4)n3)C2)o1` (centres undefined), the cytotoxicity at 70.5 h came out at 12.1%.
`Cc1cc(CN2CCC(N(C)Cc3noc(C4CC4)n3)C2)no1` (centres undefined): the cytotoxicity at 70.5 h is 13%.
As for `CC(C(=O)NCCN1CCN(C)CC1)n1cncn1` (centres undefined), the cytotoxicity at 70.5 h was -7.19%.
For `CC1CCN(CCNC(=O)C(C)n2cncn2)CC1` (centres undefined), the cytotoxicity at 70.5 h is -2.14%.
For the molecule `Cc1cc(C)n(CC2CCCN2CC(=O)Nc2cc(C(C)C)no2)n1` (centres undefined), the cytotoxicity at 70.5 h worked out at 14.2%.
As to `COc1ccccc1CNC(=O)CNCCn1cc(C)cn1`, the cytotoxicity at 70.5 h was -13.5%.
For `c1ccc(Cc2noc(CN3CCc4cncnc4C3)n2)cc1`, the cytotoxicity at 70.5 h was -9.62%.
The figure for `CCC(O)CN1CCN(C(=O)CCc2c(C)noc2Cl)CC1` (centres undefined) is -12.7%; for `Cc1cnn(C2CN(CC(=O)NCC(C)C)C2)c1` it is -13.6%; for `CS(=O)(=O)c1ccc(C(=O)NCCNc2ncccn2)cc1` it is -12.6%.
With `Cc1csc(CNC(=O)N2CCN(Cc3ccco3)CC2)n1` the figure was -5.98%.
On to `Cc1csc(CNC(=O)N2CCN(Cc3cc(C)on3)CC2)n1`, for which the cytotoxicity at 70.5 h is -3.55%.
As to `COc1cc(CCC(=O)NC(C)C)ccc1OCC(F)(F)F`, the cytotoxicity at 70.5 h was -18.5%.
With `O=C(Cc1ccc2c(c1)CCC2)NCCNc1cnccn1` the figure was -16%.
With `Cc1cc(CN2CCN(C(=O)NCc3c(C)noc3C)CC2)on1` the figure was -13.9%.
The figure for `CN(Cc1cccc(OC(F)F)c1)Cc1nc2c(cnn2C)c(=O)[nH]1` is 2.1%.
For `O=C(CN1C=Nc2ccccc2S1(=O)=O)NCc1ccccc1F`, the cytotoxicity at 70.5 h was -9.4%.
The figure for `CN(Cc1cccc(C(N)=O)c1)Cc1nc2c(cnn2C)c(=O)[nH]1` is -15.8%; for `O=C(CN1C=Nc2ccccc2S1(=O)=O)NCc1ccccc1` it is -9.5%.
Regarding `CC(C)(C)NC(=O)NC(=O)CN1C=Nc2ccccc2S1(=O)=O`, the cytotoxicity at 70.5 h was -8.6%.
On to `CN(Cc1cccc(C#N)c1)Cc1nc2c(cnn2C)c(=O)[nH]1`, for which the cytotoxicity at 70.5 h is -19%.
For `Cc1noc(Cl)c1CCC(=O)N1CCN(Cc2ccncc2)CC1`, the cytotoxicity at 70.5 h was -4.95%.
Turning to `COc1cc(CCC(=O)NCC2CC2)ccc1OCC(F)(F)F`, the cytotoxicity at 70.5 h was -11.6%.
The figure for `Cc1noc(Cl)c1CCC(=O)N1CCN(CC(C)(C)O)CC1` is 7.84%; for `Cc1cnn(CCNCC(=O)NCCOc2ccc(Cl)cc2)c1` it is -13%; for `O=C(CN1C=Nc2ccccc2S1(=O)=O)NCCCc1ccccc1` it is -12.6%.
Take `Cc1noc(Cl)c1CCC(=O)N1CCN(c2cnccn2)CC1`: the cytotoxicity at 70.5 h is -16.7%.
